Broadly, the Ki is a dissociation constant, usually derived from enzyme kinetics or from competition with a known ligand.

The structures appear in SMILES notation.

In one assay the target is T1, Botulinum neurotoxin type A (Clostridium botulinum, UniProt P0DPI0).
T1 sequence (P0DPI0 2-448 limits assumed): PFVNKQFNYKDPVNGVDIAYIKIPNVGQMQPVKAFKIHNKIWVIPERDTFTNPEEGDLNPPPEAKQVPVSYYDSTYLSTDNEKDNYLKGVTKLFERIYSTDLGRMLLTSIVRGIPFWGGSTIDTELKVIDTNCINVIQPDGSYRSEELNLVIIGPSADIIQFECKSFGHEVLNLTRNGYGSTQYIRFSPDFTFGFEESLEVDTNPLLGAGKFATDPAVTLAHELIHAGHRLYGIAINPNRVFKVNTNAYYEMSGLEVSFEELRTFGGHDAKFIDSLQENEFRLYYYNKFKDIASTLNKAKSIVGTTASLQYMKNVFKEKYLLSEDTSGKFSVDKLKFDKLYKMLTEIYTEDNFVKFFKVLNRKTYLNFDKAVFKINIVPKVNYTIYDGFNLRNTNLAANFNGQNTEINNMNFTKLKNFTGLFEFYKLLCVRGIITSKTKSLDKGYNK
`O=C(CN(Cc1ccccc1)Cc1ccccc1)NO` had a Ki of 90 µM.

The next assay has as its target T1, Botulinum neurotoxin type A. The assay is described as follows: Inhibition of Clostridium botulinum BoNT/A light chain (1 to 429 amino acid) using Abz-Thr-dArg-Ile-Asp-Glu-Ala-Asn-Gln-Arg-Ala-Thr-Lys-Nle-Lys(Dnp)-NH2 as substrate after 10 mins by FRET assay.
`O=C(NC(Cc1c[nH]c2ccccc12)C(=O)NO)c1ccco1` (stereo not given): the Ki is > 300 µM.
On to `NC(=O)C1CC(C(=O)NO)=NN1c1ccccc1` (stereo not given), for which the Ki was > 300 µM.
`Cc1nnc(SCC(=O)NO)n1Cc1ccccc1`: the Ki was > 300 µM.
For the compound `O=C(NC(Cc1ccccc1)C(=O)NO)C1CCCCC1` (stereo not given), the Ki was > 300 µM.
Turning to `COc1ccc(CN2CCNC(=O)C2CC(=O)NO)cc1OC` (stereo not given), the Ki is > 300 µM.
For `O=C(NC(Cc1c[nH]c2ccccc12)C(=O)NO)c1ccc(Cl)s1` (stereo not given), the Ki was > 300 µM.
As to `O=C(CC1C(=O)NCCN1C/C=C/c1ccccc1)NO` (stereo not given), the inhibition constant Ki was > 300 µM.
Take `O=C(CN1C(=O)c2ccccc2C1c1c[nH]c2ccccc12)NO` (stereo not given): the Ki is > 300 µM.
In turn, `O=C(NO)c1ccccc1-c1ccccc1C(=O)Nc1ccccn1` returned a Ki of 21 µM.
For the compound `O=C(CNC(=O)c1ccc2noc(-c3ccccc3)c2c1)NO`, the Ki came to 77 µM.
Regarding `O=C(Cn1nc(Cc2ccccc2)c2ccccc2c1=O)NO`, the affinity, expressed as Ki, was 93 µM.
Turning to `Cc1ccc(CN(CC(=O)NO)S(=O)(=O)c2ccccc2)cc1`, the Ki stood at 142 µM.
The compound `CCC(C)C(C(=O)NO)N1C(=O)c2ccccc2C1=O` (stereo not given) showed a Ki of 188 µM.
The same measure, in the same setting: the result for `O=C(NC(Cc1c[nH]c2ccccc12)C(=O)NO)c1ccc(F)cc1` (stereo not given) reads 212 µM; that for `COc1ccccc1-c1cc(C(=O)NO)[nH]n1`, > 300 µM; that for `CCCCOc1ccccc1-c1cc(C(=O)NO)[nH]n1`, > 300 µM.
`O=C(NO)c1cccc(-c2ccc(CNCC3CCCO3)o2)c1` (stereo not given): the Ki was > 300 µM.
For `O=C(Cc1nc(-c2cccnc2)sc1-c1ccc(Cl)cc1)NO`, the Ki was > 300 µM.
`Cc1cc(C(=O)NC(Cc2c[nH]c3ccccc23)C(=O)NO)c(C)o1` (stereo not given): the Ki is > 300 µM.
`Cc1ccc(C(=O)NC(Cc2c[nH]c3ccccc23)C(=O)NO)o1` (stereo not given): the Ki is > 300 µM.
In the case of `O=C(COc1ccccc1)NC(Cc1ccccc1)C(=O)NO` (stereo not given), the Ki was > 300 µM.
Take `Cc1ccc(OCC(=O)NC(Cc2ccccc2)C(=O)NO)cc1` (stereo not given): the Ki is > 300 µM.
As for `O=C(CCC(=O)N(c1ccccc1)c1ccccc1)NO`, the Ki is > 300 µM.
Regarding `Cc1nc(C)c(CCC(=O)NO)c(=O)[nH]1`, the Ki is > 300 µM.
Consider `Cc1nnc(SCc2ccccc2C(=O)NO)n1C`, for which the Ki was > 300 µM.
On the same count and under the same terms, the value for `O=C(CC1SC(N2CCCC2)=NC1=O)NO` (stereo not given) was > 300 µM; that for `O=C(CCN1C(=O)c2ccccc2C1c1c[nH]c2ccccc12)NO` (stereo not given) was 194 µM.
On to `Cc1[nH]c2ccccc2c1C1c2ccccc2C(=O)N1CC(=O)NO` (stereo not given), for which affinity was put at a Ki of 142 µM.
On to `O=C(CC1Sc2ccccc2NC1=O)NO` (stereo not given), for which the Ki is > 300 µM.

The values above are taken from ChEMBL document CHEMBL2375245, “Virtual medicinal chemistry: in silico pre-docking functional group transformation for discovery of novel inhibitors of botulinum toxin serotype A light chain” (Bioorg Med Chem Lett, 2013).
